Data as given in ChEMBL document CHEMBL3856242, “Bioactive diterpenoids from Trigonostemon chinensis: Structures, NO inhibitory activities, and interactions with iNOS” (Bioorg Med Chem Lett, 2016).

Columns and labels:
[1] = molecular target: T1, Nitric oxide synthase, inducible (Mus musculus, UniProt P29477); assay: Inhibition of iNOS in mouse BV2 cells assessed as inhibition of LPS-induced NO production after 20 hrs by Griess reaction; type: cell-based, BV-2
T1 sequence (P29477 whole entry): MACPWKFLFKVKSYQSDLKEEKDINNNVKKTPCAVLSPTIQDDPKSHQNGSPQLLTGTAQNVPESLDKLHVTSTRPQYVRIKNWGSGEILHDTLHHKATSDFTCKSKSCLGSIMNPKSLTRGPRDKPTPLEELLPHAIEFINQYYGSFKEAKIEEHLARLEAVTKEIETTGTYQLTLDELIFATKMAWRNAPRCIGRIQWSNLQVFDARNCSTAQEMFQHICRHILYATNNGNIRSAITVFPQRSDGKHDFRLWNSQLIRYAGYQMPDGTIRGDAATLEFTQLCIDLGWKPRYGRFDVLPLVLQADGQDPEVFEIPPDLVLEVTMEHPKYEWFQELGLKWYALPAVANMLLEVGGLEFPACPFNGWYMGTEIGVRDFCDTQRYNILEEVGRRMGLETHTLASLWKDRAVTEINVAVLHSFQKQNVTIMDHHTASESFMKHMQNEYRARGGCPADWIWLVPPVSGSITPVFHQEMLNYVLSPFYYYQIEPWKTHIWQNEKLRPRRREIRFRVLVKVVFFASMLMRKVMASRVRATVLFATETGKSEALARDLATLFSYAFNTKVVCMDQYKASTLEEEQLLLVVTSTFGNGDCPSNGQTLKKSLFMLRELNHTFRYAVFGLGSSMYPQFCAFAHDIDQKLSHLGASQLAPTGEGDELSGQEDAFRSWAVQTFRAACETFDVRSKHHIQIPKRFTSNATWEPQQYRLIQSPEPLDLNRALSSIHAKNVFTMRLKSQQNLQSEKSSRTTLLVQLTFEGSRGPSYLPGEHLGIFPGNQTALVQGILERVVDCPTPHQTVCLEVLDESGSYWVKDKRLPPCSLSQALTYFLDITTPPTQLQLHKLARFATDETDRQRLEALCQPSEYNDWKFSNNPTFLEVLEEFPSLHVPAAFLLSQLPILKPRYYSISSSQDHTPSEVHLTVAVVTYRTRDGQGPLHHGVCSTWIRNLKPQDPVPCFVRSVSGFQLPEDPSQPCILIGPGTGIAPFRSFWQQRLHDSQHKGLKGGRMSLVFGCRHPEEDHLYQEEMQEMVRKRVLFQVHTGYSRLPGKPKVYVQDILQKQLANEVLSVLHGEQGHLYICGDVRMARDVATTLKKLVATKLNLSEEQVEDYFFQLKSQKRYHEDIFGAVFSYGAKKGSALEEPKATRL

Mus musculus = organism: Mus musculus; assay: Cytotoxicity against mouse BV2 cells at IC50 by MTT assay; type: toxicity, cell-based; conditions: bv-2

**Q.** What does the source list for `CSC(=N)N.O=S(=O)(O)O`?
**A.** IC50 [1]: 1.8 µM; Activity (Mus musculus): Non-Toxic

**Q.** How did the IC50 [1] turn out when `C=C(C)[C@@]1(OC(C)=O)[C@H](OC(C)=O)[C@@H]2[C@H](OC(C)=O)[C@@]3(C)O[C@@]4([C@@H]3OC(=O)c3ccccc3)[C@@H](OC(C)=O)[C@@H](C)C[C@H]4[C@@]2(O)[C@H](C)[C@@H]1OC(=O)c1ccccc1` was run?
**A.** 7.5 µM

**Q.** What about the Activity (Mus musculus) of the same compound?
**A.** Non-Toxic

**Q.** What does the source list for `Cc1cc2c(cc1O)[C@@]1(C)CC[C@H](O)C(C)(C)[C@@H]1CC2`?
**A.** IC50 [1]: 5.9 µM; Activity (Mus musculus): Non-Toxic

**Q.** `C=C(C)[C@@]1(O)[C@@H]2OC3(c4ccccc4)O[C@H]1[C@@H](C)[C@@]1(O3)[C@H]2[C@H](O)[C@@](C)(OC(=O)c2ccccc2)[C@@H](OC(C)=O)[C@@]2(O)[C@H]1C[C@H](C)[C@@H]2O` was tested. Which IC50 [1] did it give?
**A.** > 30 µM

**Q.** And the Activity (Mus musculus)?
**A.** Non-Toxic

**Q.** For `C=C(C)[C@@]1(OC(=O)c2ccccc2)[C@H](OC(C)=O)[C@@H]2[C@H](OC(C)=O)[C@@]3(C)O[C@@]4([C@@H]3OC(=O)c3ccccc3)[C@@H](OC(C)=O)[C@@H](C)C[C@H]4[C@@]2(O)[C@H](C)[C@@H]1OC(C)=O`, which IC50 [1] is on record?
**A.** 13.4 µM

**Q.** And the Activity (Mus musculus)?
**A.** Non-Toxic

**Q.** Which IC50 [1] does the source give for `Cc1cc2c(cc1O)C=C1CC[C@H](O)C(C)(C)[C@@H]1CC2` here?
**A.** 3.8 µM

**Q.** What about the Activity (Mus musculus) of the same compound?
**A.** Non-Toxic

**Q.** How did the IC50 [1] turn out when `C=C(C)[C@@]1(O)[C@@H]2OC3(c4ccccc4)O[C@H]1[C@@H](C)[C@@]1(O3)[C@H]2[C@H](OC(C)=O)[C@@](C)(OC(=O)c2ccccc2)[C@@H](OC(C)=O)[C@@]2(O)[C@H]1C[C@H](C)[C@@H]2O` was run?
**A.** 10.2 µM

**Q.** What about the Activity (Mus musculus) of the same compound?
**A.** Non-Toxic
